# The source made the active and inactive calls. The calls are words filed in the database; no cut-off is given here.
# Test system: not listed separately
# Assay: Hemolytic activity in human RBC assessed as hemolysis at 512 times of MIC measured after 1 hr
# Type: toxicity, cell-based, Erythrocyte
# Details: red blood cells (erythrocytes), read-out: Activity
row,SMILES,"hemolysis at 1 h, 512 times of MIC [%]"
1,CC(=O)Nc1ccc(S(=O)(=O)C/C(=N/NC(=O)c2ccccn2)c2nccs2)cc1,< 3

# Test system: Calf thymus DNA
# Assay: Binding affinity to calf thymus DNA assessed as compound DNA complex formation by UV-Vis spectrophotometric analysis
# Type: nucleic-acid assay
# Details: Bos taurus
row,SMILES,Activity
1,CC(=O)Nc1ccc(S(=O)(=O)C/C(=N/NC(=O)c2ccccn2)c2nccs2)cc1,Active

# Test system: Enterococcus faecalis
# Assay: Induction of intracellular ROS generation in Enterococcus faecalis by DCFH-DA staining based fluorescence microscopic analysis
# Type: functional, organism-based
# Details: not given
row,SMILES,Activity
1,CC(=O)Nc1ccc(S(=O)(=O)C/C(=N/NC(=O)c2ccccn2)c2nccs2)cc1,Dose-Dependent Effect

# Test system: Calf thymus DNA
# Assay: Binding affinity to calf thymus DNA assessed as compound DNA complex formation by measuring fluorescence intensity by acridine orange dye based competitive binding assay
# Type: nucleic-acid assay
# Details: Bos taurus
row,SMILES,Activity
1,CC(=O)Nc1ccc(S(=O)(=O)C/C(=N/NC(=O)c2ccccn2)c2nccs2)cc1,Active

# Test system: Enterococcus faecalis
# Assay: Effect on cell morphology in Enterococcus faecalis assessed as cell deformation at 2 times of MIC incubated for 4 hrs by scanning electron microscopic analysis
# Type: functional, organism-based
# Details: not given
row,SMILES,Activity
1,CC(=O)Nc1ccc(S(=O)(=O)C/C(=N/NC(=O)c2ccccn2)c2nccs2)cc1,Active

# Test system: Enterococcus faecalis
# Assay: Antibacterial activity against Enterococcus faecalis assessed as reduction in metabolic activity at 0.5 to 8 times of MIC by alamar blue staining based assay
# Type: functional, organism-based
# Details: not given
row,SMILES,Activity
1,CC(=O)Nc1ccc(S(=O)(=O)C/C(=N/NC(=O)c2ccccn2)c2nccs2)cc1,Active

# Test system: Enterococcus faecalis
# Assay: Antibacterial activity against Enterococcus faecalis p1-2007226001 assessed as inhibition of bacterial growth by continuous dilution method
# Type: functional
# Details: not given
row,SMILES,MIC [µg/mL]
1,CC(=O)Nc1ccc(S(=O)(=O)C/C(=N/NC(=O)c2ccccn2)c2nccs2)cc1,4
2,CCn1cc(C(=O)O)c(=O)c2cc(F)c(N3CCNCC3)cc21 [NORFLOXACIN],4

# Test system: Enterococcus faecalis
# Assay: Antibiofilm activity against Enterococcus faecalis assessed as inhibition of biofilm formation at 0.5 to 6 times of MIC by crystal violet staining based analysis
# Type: functional, organism-based
# Details: not given
row,SMILES,Activity
1,CC(=O)Nc1ccc(S(=O)(=O)C/C(=N/NC(=O)c2ccccn2)c2nccs2)cc1,Active

# Test system: Staphylococcus aureus
# Assay: Antibacterial activity against methicillin-resistant Staphylococcus aureus N315 assessed as inhibition of bacterial growth by continuous dilution method
# Type: functional
# Details: not given
row,SMILES,MIC [µg/mL]
1,CC(=O)Nc1ccc(S(=O)(=O)C/C(=N/NC(=O)c2ccccn2)c2nccs2)cc1,64
2,CCn1cc(C(=O)O)c(=O)c2cc(F)c(N3CCNCC3)cc21 [NORFLOXACIN],8
3,CC(=O)Nc1ccc(S(=O)(=O)/C(=C\c2nccs2)C(=O)c2nccs2)cc1,8
4,CC(=O)Nc1ccc(S(=O)(=O)C/C(=N/Nc2ccc([N+](=O)[O-])cc2)c2nccs2)cc1,256

# Test system: Pseudomonas aeruginosa
# Assay: Antibacterial activity against Pseudomonas aeruginosa assessed as inhibition of bacterial growth by continuous dilution method
# Type: functional
# Details: not given
row,SMILES,MIC [µg/mL]
1,CC(=O)Nc1ccc(S(=O)(=O)C/C(=N/NC(=O)c2ccccn2)c2nccs2)cc1,128
2,CCn1cc(C(=O)O)c(=O)c2cc(F)c(N3CCNCC3)cc21 [NORFLOXACIN],2
3,CC(=O)Nc1ccc(S(=O)(=O)/C(=C\c2nccs2)C(=O)c2nccs2)cc1,128
4,CC(=O)Nc1ccc(S(=O)(=O)C/C(=N/Nc2ccc([N+](=O)[O-])cc2)c2nccs2)cc1,32

# Test system: Escherichia coli
# Assay: Antibacterial activity against Escherichia coli assessed as inhibition of bacterial growth by continuous dilution method
# Type: functional
# Details: not given
row,SMILES,MIC [µg/mL]
1,CC(=O)Nc1ccc(S(=O)(=O)C/C(=N/NC(=O)c2ccccn2)c2nccs2)cc1,32
2,CCn1cc(C(=O)O)c(=O)c2cc(F)c(N3CCNCC3)cc21 [NORFLOXACIN],16
3,CC(=O)Nc1ccc(S(=O)(=O)/C(=C\c2nccs2)C(=O)c2nccs2)cc1,16
4,CC(=O)Nc1ccc(S(=O)(=O)C/C(=N/Nc2ccc([N+](=O)[O-])cc2)c2nccs2)cc1,64

# Test system: Staphylococcus aureus
# Assay: Antibacterial activity against Staphylococcus aureus ATCC 25923 assessed as inhibition of bacterial growth by continuous dilution method
# Type: functional
# Details: not given
row,SMILES,MIC [µg/mL]
1,CC(=O)Nc1ccc(S(=O)(=O)C/C(=N/NC(=O)c2ccccn2)c2nccs2)cc1,4
2,CCn1cc(C(=O)O)c(=O)c2cc(F)c(N3CCNCC3)cc21 [NORFLOXACIN],4
3,CC(=O)Nc1ccc(S(=O)(=O)/C(=C\c2nccs2)C(=O)c2nccs2)cc1,4
4,CC(=O)Nc1ccc(S(=O)(=O)C/C(=N/Nc2ccc([N+](=O)[O-])cc2)c2nccs2)cc1,256

# Test system: Enterococcus faecalis
# Assay: Induction of oxidative stress in Enterococcus faecalis assessed as decrease in GSH activity at 0.5 to 16 times of MIC by Ellman's method
# Type: functional, organism-based
# Details: not given
row,SMILES,Activity
1,CC(=O)Nc1ccc(S(=O)(=O)C/C(=N/NC(=O)c2ccccn2)c2nccs2)cc1,Active

# Test system: Acinetobacter baumannii
# Assay: Antibacterial activity against Acinetobacter baumannii assessed as inhibition of bacterial growth by continuous dilution method
# Type: functional
# Details: not given
row,SMILES,MIC [µg/mL]
1,CC(=O)Nc1ccc(S(=O)(=O)C/C(=N/NC(=O)c2ccccn2)c2nccs2)cc1,32
2,CCn1cc(C(=O)O)c(=O)c2cc(F)c(N3CCNCC3)cc21 [NORFLOXACIN],4
3,CC(=O)Nc1ccc(S(=O)(=O)/C(=C\c2nccs2)C(=O)c2nccs2)cc1,128
4,CC(=O)Nc1ccc(S(=O)(=O)C/C(=N/Nc2ccc([N+](=O)[O-])cc2)c2nccs2)cc1,256

# Test system: Enterococcus faecalis
# Assay: Antibacterial activity against Enterococcus faecalis assessed as reduction in bacterial growth measured after 16 passages by continuous dilution method
# Type: functional, organism-based
# Details: not given
row,SMILES,Activity
1,CC(=O)Nc1ccc(S(=O)(=O)C/C(=N/NC(=O)c2ccccn2)c2nccs2)cc1,Active

# Test system: Klebsiella pneumoniae
# Assay: Antibacterial activity against Klebsiella pneumoniae assessed as inhibition of bacterial growth by continuous dilution method
# Type: functional
# Details: not given
row,SMILES,MIC [µg/mL]
1,CC(=O)Nc1ccc(S(=O)(=O)C/C(=N/NC(=O)c2ccccn2)c2nccs2)cc1,64
2,CCn1cc(C(=O)O)c(=O)c2cc(F)c(N3CCNCC3)cc21 [NORFLOXACIN],8
3,CC(=O)Nc1ccc(S(=O)(=O)/C(=C\c2nccs2)C(=O)c2nccs2)cc1,16
4,CC(=O)Nc1ccc(S(=O)(=O)C/C(=N/Nc2ccc([N+](=O)[O-])cc2)c2nccs2)cc1,256

# Test system: Enterococcus faecalis
# Assay: Antibacterial activity against Enterococcus faecalis assessed as log reduction in bacterial growth measured after 6 hrs by continuous dilution method
# Type: functional
# Details: not given
SMILES,Activity,log(activity)
CC(=O)Nc1ccc(S(=O)(=O)C/C(=N/NC(=O)c2ccccn2)c2nccs2)cc1,Dose-Dependent Effect,3

# Test system: not listed separately
# Assay: Cytotoxicity against human FHC cells assessed as cell viability rate at 20 ug/ml
# Type: toxicity, cell-based
# Details: at 20 µg/mL, read-out: Activity
row,SMILES,viability at 20 ug/ml [%]
1,CC(=O)Nc1ccc(S(=O)(=O)C/C(=N/NC(=O)c2ccccn2)c2nccs2)cc1,45

# Test system: Escherichia coli
# Assay: Antibacterial activity against Escherichia coli ATCC 25922 assessed as inhibition of bacterial growth by continuous dilution method
# Type: functional
# Details: not given
row,SMILES,MIC [µg/mL]
1,CC(=O)Nc1ccc(S(=O)(=O)C/C(=N/NC(=O)c2ccccn2)c2nccs2)cc1,64
2,CCn1cc(C(=O)O)c(=O)c2cc(F)c(N3CCNCC3)cc21 [NORFLOXACIN],4
3,CC(=O)Nc1ccc(S(=O)(=O)/C(=C\c2nccs2)C(=O)c2nccs2)cc1,128
4,CC(=O)Nc1ccc(S(=O)(=O)C/C(=N/Nc2ccc([N+](=O)[O-])cc2)c2nccs2)cc1,32

# Test system: Enterococcus faecalis
# Assay: Effect on cell morphology in Enterococcus faecalis assessed as cell shrank at 2 times of MIC incubated for 4 hrs by scanning electron microscopic analysis
# Type: functional, organism-based
# Details: not given
row,SMILES,Activity
1,CC(=O)Nc1ccc(S(=O)(=O)C/C(=N/NC(=O)c2ccccn2)c2nccs2)cc1,Active

# Test system: Staphylococcus aureus
# Assay: Antibacterial activity against Staphylococcus aureus assessed as inhibition of bacterial growth by continuous dilution method
# Type: functional
# Details: not given
row,SMILES,MIC [µg/mL]
1,CC(=O)Nc1ccc(S(=O)(=O)C/C(=N/NC(=O)c2ccccn2)c2nccs2)cc1,4
2,CCn1cc(C(=O)O)c(=O)c2cc(F)c(N3CCNCC3)cc21 [NORFLOXACIN],4
3,CC(=O)Nc1ccc(S(=O)(=O)/C(=C\c2nccs2)C(=O)c2nccs2)cc1,32
4,CC(=O)Nc1ccc(S(=O)(=O)C/C(=N/Nc2ccc([N+](=O)[O-])cc2)c2nccs2)cc1,32

# Test system: not listed separately
# Assay: Cytotoxicity against human NOK-SI cells assessed as cell viability rate at 20 ug/ml
# Type: toxicity, cell-based
# Details: at 20 µg/mL, read-out: Activity
row,SMILES,viability at 20 ug/ml [%]
1,CC(=O)Nc1ccc(S(=O)(=O)C/C(=N/NC(=O)c2ccccn2)c2nccs2)cc1,65

# Test system: Enterococcus faecalis
# Assay: Antibiofilm activity against Enterococcus faecalis assessed as inhibition of biofilm formation at 6 times of MIC by crystal violet staining based analysis
# Type: functional
# Parameters: scale not given: the % may be the effect or the level left
# Details: not given
row,SMILES,Activity [%]
1,CC(=O)Nc1ccc(S(=O)(=O)C/C(=N/NC(=O)c2ccccn2)c2nccs2)cc1,35

# Test system: Enterococcus faecalis
# Assay: Antibacterial activity against Enterococcus faecalis assessed as inhibition of bacterial growth by continuous dilution method
# Type: functional
# Details: not given
row,SMILES,MIC [µg/mL]
1,CC(=O)Nc1ccc(S(=O)(=O)C/C(=N/NC(=O)c2ccccn2)c2nccs2)cc1,1
2,CCn1cc(C(=O)O)c(=O)c2cc(F)c(N3CCNCC3)cc21 [NORFLOXACIN],8
3,CC(=O)Nc1ccc(S(=O)(=O)/C(=C\c2nccs2)C(=O)c2nccs2)cc1,16
4,CC(=O)Nc1ccc(S(=O)(=O)C/C(=N/Nc2ccc([N+](=O)[O-])cc2)c2nccs2)cc1,256

# Test system: Cell membrane
# Assay: Disruption of cell membrane integrity in Enterococcus faecalis assessed as increase in protein leakage by Bradford assay
# Details: not given
row,SMILES,Activity
1,CC(=O)Nc1ccc(S(=O)(=O)C/C(=N/NC(=O)c2ccccn2)c2nccs2)cc1,Dose-Dependent Effect

# Test system: Pseudomonas aeruginosa
# Assay: Antibacterial activity against Pseudomonas aeruginosa ATCC 27853 assessed as inhibition of bacterial growth by continuous dilution method
# Type: functional
# Details: not given
row,SMILES,MIC [µg/mL]
1,CC(=O)Nc1ccc(S(=O)(=O)C/C(=N/NC(=O)c2ccccn2)c2nccs2)cc1,32
2,CCn1cc(C(=O)O)c(=O)c2cc(F)c(N3CCNCC3)cc21 [NORFLOXACIN],2
3,CC(=O)Nc1ccc(S(=O)(=O)/C(=C\c2nccs2)C(=O)c2nccs2)cc1,128
4,CC(=O)Nc1ccc(S(=O)(=O)C/C(=N/Nc2ccc([N+](=O)[O-])cc2)c2nccs2)cc1,64

# Test system: Staphylococcus aureus
# Assay: Antibacterial activity against Staphylococcus aureus ATCC 29213 assessed as inhibition of bacterial growth by continuous dilution method
# Type: functional
# Details: not given
row,SMILES,MIC [µg/mL]
1,CC(=O)Nc1ccc(S(=O)(=O)C/C(=N/NC(=O)c2ccccn2)c2nccs2)cc1,256
2,CCn1cc(C(=O)O)c(=O)c2cc(F)c(N3CCNCC3)cc21 [NORFLOXACIN],2
3,CC(=O)Nc1ccc(S(=O)(=O)/C(=C\c2nccs2)C(=O)c2nccs2)cc1,64
4,CC(=O)Nc1ccc(S(=O)(=O)C/C(=N/Nc2ccc([N+](=O)[O-])cc2)c2nccs2)cc1,256

# Test system: Enterococcus faecalis
# Assay: Antibacterial activity against Enterococcus faecalis p1-2007225053 assessed as inhibition of bacterial growth by continuous dilution method
# Type: functional
# Details: not given
row,SMILES,MIC [µg/mL]
1,CC(=O)Nc1ccc(S(=O)(=O)C/C(=N/NC(=O)c2ccccn2)c2nccs2)cc1,2
2,CCn1cc(C(=O)O)c(=O)c2cc(F)c(N3CCNCC3)cc21 [NORFLOXACIN],8

# Test system: Calf thymus DNA
# Assay: Binding affinity to calf thymus DNA assessed as reduction in NR-DNA complex formation by measuring fluorescence intensity by competitive binding assay
# Type: nucleic-acid assay
# Details: Bos taurus
row,SMILES,Activity
1,CC(=O)Nc1ccc(S(=O)(=O)C/C(=N/NC(=O)c2ccccn2)c2nccs2)cc1,Active

# Test system: Cell membrane
# Assay: Induction of inner membrane permeabilization in Enterococcus faecalis at 4 times of MIC measured at 25 mins by PI staining under fluorescence microscopic analysis
# Details: not given
row,SMILES,Activity
1,CC(=O)Nc1ccc(S(=O)(=O)C/C(=N/NC(=O)c2ccccn2)c2nccs2)cc1,Active

# Test system: Cell membrane
# Assay: Induction of cytoplasmic membrane depolarization in Enterococcus faecalis at 4 times of MIC by DiSC35 dye-based fluorescence assay
# Details: time <= 80.0 min, TDE = time-dependent effect
row,SMILES,Activity
1,CC(=O)Nc1ccc(S(=O)(=O)C/C(=N/NC(=O)c2ccccn2)c2nccs2)cc1,Tde
